Experimental data taken from ChEMBL document CHEMBL4004867, “Novel antioxidants' synthesis and their anti-oxidative activity through activating Nrf2 signaling pathway” (2017).
Calls of active or inactive are those of the source. No cut-off for these calls is given here.

Legend:
PC-12 [1] = assay: Cytoprotective activity against H2O2-induced oxidative damage in rat PC12 cells assessed as increase in cell viability preincubated for 24 hrs followed by H2O2 addition measured after 24 hrs by MTT assay; type: functional, cell-based
PC-12 [2] = assay: Cytoprotective activity against H2O2-induced oxidative damage in rat PC12 cells assessed as early apoptotic cells at 2.5 uM preincubated for 24 hrs followed by H2O2 addition measured after 24 hrs by annexin V-FITC/propidium iodide staining-based flow cytometric method (reference value: 0.558%); type: functional
PC-12 [3] = assay: Cytoprotective activity against H2O2-induced oxidative damage in rat PC12 cells assessed as late apoptotic cells at 2.5 uM preincubated for 24 hrs followed by H2O2 addition measured after 24 hrs by annexin V-FITC/propidium iodide staining-based flow cytometric method (reference value: 10.7%); type: functional
PC-12 [4] = assay: Cytoprotective activity against H2O2-induced oxidative damage in rat PC12 cells assessed as necrotic cells at 2.5 uM preincubated for 24 hrs followed by H2O2 addition measured after 24 hrs by annexin V-FITC/propidium iodide staining-based flow cytometric method (reference value: 3.47%); type: functional
PC-12 [5] = assay: Cytoprotective activity against H2O2-induced oxidative damage in rat PC12 cells assessed as viable cells at 2.5 uM preincubated for 24 hrs followed by H2O2 addition measured after 24 hrs by annexin V-FITC/propidium iodide staining-based flow cytometric method (reference value: 85.2%); type: functional; settings: read-out: Activity
PC-12 [6] = assay: Cytoprotective activity against H2O2-induced oxidative damage in rat PC12 cells assessed as early apoptotic cells at 5 uM preincubated for 24 hrs followed by H2O2 addition measured after 24 hrs by annexin V-FITC/propidium iodide staining-based flow cytometric method (reference value: 0.558%); type: functional
PC-12 [7] = assay: Cytoprotective activity against H2O2-induced oxidative damage in rat PC12 cells assessed as late apoptotic cells at 5 uM preincubated for 24 hrs followed by H2O2 addition measured after 24 hrs by annexin V-FITC/propidium iodide staining-based flow cytometric method (reference value: 10.7%); type: functional
PC-12 [8] = assay: Cytoprotective activity against H2O2-induced oxidative damage in rat PC12 cells assessed as necrotic cells at 5 uM preincubated for 24 hrs followed by H2O2 addition measured after 24 hrs by annexin V-FITC/propidium iodide staining-based flow cytometric method (reference value: 3.47%); type: functional
PC-12 [9] = assay: Cytoprotective activity against H2O2-induced oxidative damage in rat PC12 cells assessed as viable cells at 5 uM preincubated for 24 hrs followed by H2O2 addition measured after 24 hrs by annexin V-FITC/propidium iodide staining-based flow cytometric method (reference value: 85.2%); type: functional; settings: read-out: Activity
PC-12 [10] = assay: Cytoprotective activity against H2O2-induced oxidative damage in rat PC12 cells assessed as early apoptotic cells at 10 uM preincubated for 24 hrs followed by H2O2 addition measured after 24 hrs by annexin V-FITC/propidium iodide staining-based flow cytometric method (reference value: 0.558%); type: functional
PC-12 [11] = assay: Cytoprotective activity against H2O2-induced oxidative damage in rat PC12 cells assessed as late apoptotic cells at 10 uM preincubated for 24 hrs followed by annexin V-FITC/propidium iodide staining-based flow cytometric method (reference value: 10.7%); type: functional
PC-12 [12] = assay: Cytoprotective activity against H2O2-induced oxidative damage in rat PC12 cells assessed as necrotic cells at 10 uM preincubated for 24 hrs followed by H2O2 addition measured after 24 hrs by annexin V-FITC/propidium iodide staining-based flow cytometric method (reference value: 3.47%); type: functional
PC-12 [13] = assay: Cytoprotective activity against H2O2-induced oxidative damage in rat PC12 cells assessed as viable cells at 10 uM preincubated for 24 hrs followed by H2O2 addition measured after 24 hrs by annexin V-FITC/propidium iodide staining-based flow cytometric method (reference value: 85.2%); type: functional; settings: read-out: Activity
PC-12 [14] = assay: Cytoprotective activity against H2O2-induced oxidative damage in rat PC12 cells preincubated for 24 hrs followed by H2O2 addition measured after 24 hrs by annexin V-FITC/propidium iodide staining-based flow cytometric method; type: functional, cell-based
[15] = Antioxidant activity assessed as DPPH radical scavenging activity relative to edaravone; type: functional
[16] = Antioxidant activity assessed as DPPH radical scavenging activity relative to tBHQ; type: functional
[17] = target: T1, Nuclear factor erythroid 2-related factor 2 (Rattus norvegicus) (UniProt O54968); assay: Induction of Nrf2 nuclear translocation in rat PC12 cells at 10 uM after 6 hrs by DAPI staining-based immunofluorescence method; type: cell-based
T1 sequence (whole entry): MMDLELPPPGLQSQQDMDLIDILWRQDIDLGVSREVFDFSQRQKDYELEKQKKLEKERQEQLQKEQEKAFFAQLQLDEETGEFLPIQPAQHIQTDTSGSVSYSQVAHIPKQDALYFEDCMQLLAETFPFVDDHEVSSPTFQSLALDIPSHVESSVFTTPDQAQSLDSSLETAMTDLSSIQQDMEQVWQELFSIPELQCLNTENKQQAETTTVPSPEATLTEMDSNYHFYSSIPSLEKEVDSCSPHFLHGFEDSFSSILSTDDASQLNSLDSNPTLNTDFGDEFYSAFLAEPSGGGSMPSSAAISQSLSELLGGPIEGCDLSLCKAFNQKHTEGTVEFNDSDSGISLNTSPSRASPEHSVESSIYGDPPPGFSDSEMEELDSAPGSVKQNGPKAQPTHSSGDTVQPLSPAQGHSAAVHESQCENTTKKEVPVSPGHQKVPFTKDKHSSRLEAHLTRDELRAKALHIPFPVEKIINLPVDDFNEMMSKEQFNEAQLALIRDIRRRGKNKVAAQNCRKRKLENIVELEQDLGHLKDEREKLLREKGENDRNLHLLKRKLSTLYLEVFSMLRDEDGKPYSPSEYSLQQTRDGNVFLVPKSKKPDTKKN

[18] = target: T1, Nuclear factor erythroid 2-related factor 2 (Rattus norvegicus); assay: Induction of Nrf2 activity in rat PC12 cells assessed as upregulation of GCLC mRNA levels at 2.5 to 10 uM after 24 hrs by RT-PCR method; type: cell-based
[19] = target: T1, Nuclear factor erythroid 2-related factor 2 (Rattus norvegicus); assay: Induction of Nrf2 activity in rat PC12 cells assessed as upregulation of GCLC levels after 24 hrs by Western blot method; type: cell-based
PC-12 [20] = assay: Cytoprotective activity against H2O2-induced oxidative damage in rat PC12 cells assessed as increase in cell viability at 10 uM preincubated for 24 hrs followed by H2O2 addition measured after 24 hrs in presence of GCLC inhibitor BSO by MTT assay; type: functional, cell-based

SMILES | Activity (PC-12 [1]) | Activity (PC-12 [2]) | Activity (PC-12 [3]) | Activity (PC-12 [4]) | viability at 2.5 µM (PC-12 [5]) | Activity (PC-12 [6]) | Activity (PC-12 [7]) | Activity (PC-12 [8]) | viability at 5 µM (PC-12 [9]) | Activity (PC-12 [10]) | Activity (PC-12 [11]) | Activity (PC-12 [12]) | viability at 10 µM (PC-12 [13]) | Activity (PC-12 [14]) | fold change (FC) [15] | fold change (FC) [16] | Activity [17] | Activity [18] | Activity [19] | Activity (PC-12 [20])
CCC(=O)N1NC(c2cc(OC)c(OC)c(OC)c2)C2=C1CCC2 (stereo not drawn) | Dose-dependent effect | 1.46% | 2.65% | 1.69% | 94.2% | 2.64% | 2.44% | 1.46% | 93.5% | 1.64% | 2.27% | 2.96% | 93.1% | Dose-dependent effect | 0.5 | 0.5 | Active | Active | Dose-dependent effect | inactive
CC1=NN(c2ccccc2)C(=O)C1 [EDARAVONE] |  |  |  |  |  |  |  |  |  | 1.17% | 1.92% | 1.85% | 95.1% |  |  |  |  |  |  | 
CC(C)(C)c1cc(O)ccc1O [E319] |  |  |  |  |  |  |  |  |  | 1.1% | 0.882% | 0.882% | 97.1% |  |  |  |  |  |  | 
